{"source": "ChEMBL document CHEMBL5608246", "about": "“Membrane-Targeting Amphiphilic Honokiol Derivatives Containing an Oxazole Moiety as Potential Antibacterials against Methicillin-Resistant Staphylococcus aureus” (J Med Chem, 2024)", "key": {"[1]": {"experiment": "Selectivity index, ratio of HC50 for sheep RBC to MIC for Staphylococcus aureus ATCC 29213", "format": "toxicity", "details": "sheep red blood cells, read-out: Selectivity Index"}, "Cell membrane [2]": {"tested_on": "Cell membrane", "experiment": "Induction of membrane permeability in methicillin resistant Staphylococcus aureus 20 assessed as broken cell membrane by measuring increased fluorescence intensity at 32 ug/ml measured at 2 mins interval over 20 mins by SYTOX green staining based assay", "format": "cell membranes", "details": "dose 32.0 µg/ml"}, "Cell membrane [3]": {"tested_on": "Cell membrane", "experiment": "Induction of membrane disruption in methicillin resistant Staphylococcus aureus 20 assessed as membrane rupture at 16 times MIC incubated for 4 hrs by SEM analysis"}, "Cell membrane [4]": {"tested_on": "Cell membrane", "experiment": "Induction of membrane depolarization in methicillin resistant Staphylococcus aureus 20 assessed as increase in fluorescence intensity measured at 2 mins interval over 20 mins by DiSC3(5) staining based assay", "details": "dose 16-64 µg/ml"}, "Staphylococcus aureus [5]": {"tested_on": "Staphylococcus aureus", "experiment": "Effect on ABC transporter protein gene expression in methicillin resistant Staphylococcus aureus N315 at 4 ug/ml incubated for 4 hrs by RNA-sequencing analysis", "format": "functional", "details": "dose 4.0 µg/ml"}, "[6]": {"experiment": "Toxicity in Kunming mouse skin abscess model infected with methicillin resistant Staphylococcus aureus assessed as spleen damage at 5 to 10 mg/kg, sc measured after 2 hrs by H and E staining based assay", "format": "organism-based", "details": "in vivo, dose 5-10 mg/kg"}, "Staphylococcus aureus [7]": {"tested_on": "Staphylococcus aureus", "experiment": "Inhibition of enzyme activity in methicillin resistant Staphylococcus aureus N315 at 4 ug/ml incubated for 4 hrs by RNA-sequencing analysis", "format": "functional, organism-based", "details": "dose 4.0 µg/ml"}, "Staphylococcus aureus [8]": {"tested_on": "Staphylococcus aureus", "experiment": "Antibacterial activity against methicillin resistant Staphylococcus aureus M22 incubated for 16 to 18 hrs by broth dilution method", "format": "functional", "details": "time 16-18 hrs"}, "Staphylococcus aureus [9]": {"tested_on": "Staphylococcus aureus", "experiment": "Inhibition of protein synthesis in methicillin resistant Staphylococcus aureus N315 at 4 ug/ml incubated for 4 hrs by RNA-sequencing analysis", "format": "functional, organism-based", "details": "dose 4.0 µg/ml"}, "Cell membrane [10]": {"tested_on": "Cell membrane", "experiment": "Induction of membrane disruption in methicillin resistant Staphylococcus aureus 20 assessed as viable cells with intact membrane at 128 ug/ml incubated for 2 hrs by SYTO9/PI staining based flow cytometry analysis (reference value: 98.7%)", "format": "cell membranes", "details": "dose 128.0 µg/ml"}, "Staphylococcus aureus [11]": {"tested_on": "Staphylococcus aureus", "experiment": "Antibacterial activity against methicillin resistant Staphylococcus aureus 20 incubated for 16 to 18 hrs in presence of 2 to 64 ug/ml peptidoglycan by checkerboard broth dilution method", "format": "functional, organism-based", "details": "time 16-18 hrs"}, "Staphylococcus aureus [12]": {"tested_on": "Staphylococcus aureus", "experiment": "Antibacterial activity against methicillin resistant Staphylococcus aureus M12 incubated for 16 to 18 hrs by broth dilution method", "format": "functional", "details": "time 16-18 hrs"}, "L02": {"tested_on": "L02", "experiment": "Cytotoxicity against human L02 cells assessed as reduction in cell viability incubated for 24 hrs by CCK8 assay", "format": "toxicity, cell-based", "details": "l02, 24 h"}, "Staphylococcus aureus [13]": {"tested_on": "Staphylococcus aureus", "experiment": "Antibacterial activity against methicillin resistant Staphylococcus aureus 20 infected in Kunming mouse skin abscess model assessed as reduction in abscess size at 5 mg/kg, sc measured after 2 hrs", "format": "functional, organism-based"}, "[14]": {"experiment": "Toxicity in Kunming mouse assessed as change in hemoglobin level at 20 mg/kg, sc measured after 24 hrs", "format": "organism-based", "details": "in vivo"}, "Staphylococcus aureus [15]": {"tested_on": "Staphylococcus aureus", "experiment": "Downregulation of sasA gene expression in methicillin resistant Staphylococcus aureus N315 at 4 ug/ml incubated for 4 hrs by RNA-sequencing analysis", "format": "functional", "details": "dose 4.0 µg/ml"}, "[16]": {"experiment": "Toxicity in Kunming mouse skin abscess model infected with methicillin resistant Staphylococcus aureus assessed as heart damage at 5 to 10 mg/kg, sc measured after 2 hrs by H and E staining based assay", "format": "organism-based", "details": "in vivo, dose 5-10 mg/kg"}, "Staphylococcus aureus [17]": {"tested_on": "Staphylococcus aureus", "experiment": "Antibacterial activity against methicillin resistant Staphylococcus aureus 20 incubated for 16 to 18 hrs in presence of 32 ug/ml cardiolipin by checkerboard broth dilution method", "format": "functional", "details": "time 16-18 hrs"}, "[18]": {"experiment": "Toxicity in Kunming mouse skin abscess model infected with methicillin resistant Staphylococcus aureus assessed as kidney damage at 5 to 10 mg/kg, sc measured after 2 hrs by H and E staining based assay", "format": "organism-based", "details": "in vivo, dose 5-10 mg/kg"}, "[19]": {"experiment": "Toxicity in Kunming mouse assessed as lung abnormalities at 10 mg/kg, sc measured after 24 hrs", "format": "organism-based", "details": "in vivo"}, "Staphylococcus aureus [20]": {"tested_on": "Staphylococcus aureus", "experiment": "Antibacterial activity against methicillin resistant Staphylococcus aureus 20 infected in Kunming mouse skin abscess model assessed as reduction in bacterial load at 5 mg/kg, sc measured after 2 hrs", "format": "functional", "parameters": "scale not given: the % may be the effect or the level left"}, "[21]": {"experiment": "Toxicity in Kunming mouse assessed as effect on survival at 5 to 80 mg/kg, sc measured after 24 hrs", "format": "organism-based", "details": "in vivo, dose 5-80 mg/kg"}, "Staphylococcus aureus [22]": {"tested_on": "Staphylococcus aureus", "experiment": "Antibacterial activity against methicillin resistant Staphylococcus aureus M23 incubated for 16 to 18 hrs by broth dilution method", "format": "functional", "details": "time 16-18 hrs"}, "[23]": {"experiment": "Toxicity in Kunming mouse assessed as skin abnormalities at 20 mg/kg, sc measured after 24 hrs", "format": "organism-based", "details": "in vivo"}, "Staphylococcus aureus [24]": {"tested_on": "Staphylococcus aureus", "experiment": "Antibacterial activity against Staphylococcus aureus ATCC 29213 after 20 passages incubated for 16 to 18 hrs", "format": "functional", "details": "time 16-18 hrs"}, "Staphylococcus aureus [25]": {"tested_on": "Staphylococcus aureus", "experiment": "Upregulation of cwrA gene expression in methicillin resistant Staphylococcus aureus N315 at 4 ug/ml incubated for 4 hrs by RNA-sequencing analysis", "format": "functional", "details": "dose 4.0 µg/ml"}, "[26]": {"experiment": "Toxicity in Kunming mouse assessed as heart abnormalities at 10 mg/kg, sc measured after 24 hrs", "format": "organism-based", "details": "in vivo"}, "Staphylococcus aureus [27]": {"tested_on": "Staphylococcus aureus", "experiment": "Antibacterial activity against methicillin resistant Staphylococcus aureus 20 infected in Kunming mouse skin abscess model assessed as reduction in bacterial load at 10 mg/kg, sc measured after 2 hrs", "format": "functional", "parameters": "scale not given: the % may be the effect or the level left"}, "Cell membrane [28]": {"tested_on": "Cell membrane", "experiment": "Induction of membrane disruption in methicillin resistant Staphylococcus aureus 20 assessed as increase in red fluorescence signal incubated for 2 hrs by SYTO9/PI staining based flow cytometry analysis", "details": "dose 8-128 µg/ml"}, "Cell membrane [29]": {"tested_on": "Cell membrane", "experiment": "Induction of membrane disruption in methicillin resistant Staphylococcus aureus 20 assessed as DNA leakage incubated for 4 hrs by microspectrophotometer analysis", "format": "cell membranes", "details": "dose 2-16 µg/ml"}, "[30]": {"experiment": "Toxicity in Kunming mouse assessed as change in hematocrit level at 20 mg/kg, sc measured after 24 hrs", "format": "organism-based", "details": "in vivo"}, "[31]": {"experiment": "Toxicity in Kunming mouse assessed as kidney abnormalities at 10 mg/kg, sc measured after 24 hrs", "format": "organism-based", "details": "in vivo"}, "Staphylococcus aureus [32]": {"tested_on": "Staphylococcus aureus", "experiment": "Antibacterial activity against methicillin resistant Staphylococcus aureus M16 incubated for 16 to 18 hrs by broth dilution method", "format": "functional", "details": "time 16-18 hrs"}, "Staphylococcus aureus [33]": {"tested_on": "Staphylococcus aureus", "experiment": "Antibacterial activity against methicillin resistant Staphylococcus aureus 20 infected in Kunming mouse skin abscess model assessed as reduction in inflammatory cell infiltration in dermal layer at 10 mg/kg, sc measured after 2 hrs", "format": "functional, organism-based"}, "Staphylococcus aureus [34]": {"tested_on": "Staphylococcus aureus", "experiment": "Antibacterial activity against methicillin resistant Staphylococcus aureus 20 infected in Kunming mouse skin abscess model assessed as reduction in TNF-alpha level at 5 to 10 mg/kg, sc measured after 2 hrs by ELISA", "format": "functional, organism-based", "details": "dose 5-10 mg/kg"}, "Cell membrane [35]": {"tested_on": "Cell membrane", "experiment": "Induction of membrane depolarization in methicillin resistant Staphylococcus aureus 20 assessed as fold increase in fluorescence intensity at 32 times MIC measured at 2 mins interval over 20 mins by DiSC3(5) staining based assay relative to control", "format": "cell membranes"}, "Staphylococcus aureus [36]": {"tested_on": "Staphylococcus aureus", "experiment": "Antibacterial activity against methicillin resistant Staphylococcus aureus M20 incubated for 16 to 18 hrs by broth dilution method", "format": "functional", "details": "time 16-18 hrs"}, "Staphylococcus aureus [37]": {"tested_on": "Staphylococcus aureus", "experiment": "Antibacterial activity against methicillin resistant Staphylococcus aureus 20 infected in Kunming mouse skin abscess model assessed as reduction in severity of skin abscess at 5 mg/kg, sc measured after 2 hrs", "format": "functional, organism-based"}, "[38]": {"experiment": "Toxicity in Kunming mouse assessed as change in red blood cell counts at 20 mg/kg, sc measured after 24 hrs", "format": "organism-based", "details": "in vivo"}, "[39]": {"experiment": "Toxicity in Kunming mouse assessed as skin swelling at 40 to 80 mg/kg, sc measured after 24 hrs", "format": "organism-based", "details": "in vivo, dose 40-80 mg/kg"}}, "note": "The source made the active and inactive calls. The rule behind the calls is not given here."}
{"compound": "C=CCc1cc(-c2ccc(OCCC[N+](C)(C)CC(=O)NCCCC)c(CC=C)c2)c2oc(-c3c(Cl)cccc3Cl)nc2c1.[Br-]", "values": [{"measurement": "selectivity ratio", "setting": "[1]", "result": 54.5}, {"measurement": "Activity", "setting": "Cell membrane [2]", "result": "Active"}, {"measurement": "Activity", "setting": "Cell membrane [3]", "result": "Active"}, {"measurement": "Activity", "setting": "Cell membrane [4]", "result": "Dose-Dependent Effect"}, {"measurement": "Activity", "setting": "Staphylococcus aureus [5]", "result": "Active"}, {"measurement": "Activity", "setting": "[6]", "result": "Non-Toxic"}, {"measurement": "Activity", "setting": "Staphylococcus aureus [7]", "result": "Active"}, {"measurement": "MIC", "setting": "Staphylococcus aureus [8]", "result": 2, "unit": "µg/mL"}, {"measurement": "inhibition", "setting": "Staphylococcus aureus [9]", "result": "Active"}, {"measurement": "Activity", "setting": "Cell membrane [10]", "result": 0, "unit": "%"}, {"measurement": "Activity", "setting": "Staphylococcus aureus [11]", "result": "Active"}, {"measurement": "MIC", "setting": "Staphylococcus aureus [12]", "result": 4, "unit": "µg/mL"}, {"measurement": "Activity", "setting": "L02", "result": "Dose-Dependent Effect"}, {"measurement": "Activity", "setting": "Staphylococcus aureus [13]", "result": "Active"}, {"measurement": "Activity", "setting": "[14]", "result": "Non-Toxic"}, {"measurement": "Activity", "setting": "Staphylococcus aureus [15]", "result": "Active"}, {"measurement": "Activity", "setting": "[16]", "result": "Non-Toxic"}, {"measurement": "MIC", "setting": "Staphylococcus aureus [17]", "result": 32, "unit": "µg/mL"}, {"measurement": "Activity", "setting": "[18]", "result": "Non-Toxic"}, {"measurement": "Activity", "setting": "[19]", "result": "Non-Toxic"}, {"measurement": "Activity", "setting": "Staphylococcus aureus [20]", "result": 96.54, "unit": "%"}, {"measurement": "Activity", "setting": "[21]", "result": "Non-Toxic"}, {"measurement": "MIC", "setting": "Staphylococcus aureus [22]", "result": 4, "unit": "µg/mL"}, {"measurement": "Activity", "setting": "[23]", "result": "Non-Toxic"}, {"measurement": "MIC", "setting": "Staphylococcus aureus [24]", "result": 2, "unit": "µg/mL"}, {"measurement": "Activity", "setting": "Staphylococcus aureus [25]", "result": "Active"}, {"measurement": "Activity", "setting": "[26]", "result": "Non-Toxic"}, {"measurement": "Activity", "setting": "Staphylococcus aureus [27]", "result": 96.63, "unit": "%"}, {"measurement": "Activity", "setting": "Cell membrane [28]", "result": "Dose-Dependent Effect"}, {"measurement": "Activity", "setting": "Cell membrane [29]", "result": "Dose-Dependent Effect"}, {"measurement": "Activity", "setting": "[30]", "result": "Non-Toxic"}, {"measurement": "Activity", "setting": "[31]", "result": "Non-Toxic"}, {"measurement": "MIC", "setting": "Staphylococcus aureus [32]", "result": 2, "unit": "µg/mL"}, {"measurement": "Activity", "setting": "Staphylococcus aureus [33]", "result": "Active"}, {"measurement": "Activity", "setting": "Staphylococcus aureus [34]", "result": "Active"}, {"measurement": "fold change (FC)", "setting": "Cell membrane [35]", "result": 8}, {"measurement": "MIC", "setting": "Staphylococcus aureus [36]", "result": 2, "unit": "µg/mL"}, {"measurement": "Activity", "setting": "Staphylococcus aureus [37]", "result": "Active"}, {"measurement": "Activity", "setting": "[38]", "result": "Non-Toxic"}, {"measurement": "Activity", "setting": "[39]", "result": "Toxic"}]}
